Experimental data published in patent US20070042962A1, “Peptide dependent upregulation of telomerase expression” (priority 2002, published 2007).
Ends that are not written are not given here.

How the values were obtained:
telomerase [1] = assay: TRAP telomerase assay of tissue homogenates from old mice orally treated for 30 days; type: in vivo, mouse
Method: (§1) Telomerase activity was measured in total cellular lysates using a telomeric repeat amplification protocol (TRAP). DNA oligomer “TS” 18-mer (AATCCGTCGAGCAGAGTT) (SEQ ID NO:30) was end-labeled with P^32 in a 20 μl reaction containing 50 mM Tris-HCl (pH 7.5), 10 mM MgCl2, 0.1 mM EDTA, 1 mM DTT, 1 pmol TS primer, 1 pmol [γ-^32P]-ATP (4,500 Ci/mmol), and 5 U polynucleotide kinase (Ambion). The reaction was incubated for 20 minutes at 37° C., and then stopped by incubating for 5 minutes at 85° C. Labeled TS oligomer was stored at −20° C. until use.
(§2) Telomerase-induced hexamer extensions to the TS primer were performed in a 50 μl reaction volume containing 20 mM Tris-HCl (pH 8.3), 1.5 mM MgCl2, 63 mM KCl, 0.05% Tween-20, 1 mM EGTA, 50 μM dNTPs, 0.1 pmol ^32P-labeled TS primer, 1 pmol reverse primer RP (CTAACCCTAACCCTAACC) (SEQ ID NO:31), 1.0 μg cell lysate, and 2 U Taq polymerase (Ambion). The reaction was incubated for 30 minutes at 30° C. Hexamer extensions were then amplified by PCR using the following program: denaturation at 94° C. for 30 seconds, annealing at 59° C. for 30 seconds, 27 cycles denaturation/annealing. Radiolabeled ladders were separated by electrophoresis on 10% polyacrylamide gels, dried onto 3 MM paper, and visualized by autoradiography with Kodak X-Omat AR film. Exposure times averaged 4 hours at 25° C. Ladders were quantitated by excision from the gel, and counting in a Bench Count (Beckman).
The ability of peptide compounds described herein to upregulate telomerase in old and young mice was also studied. Here, the old mice (17 months old) were treated daily by gavage for 30 days with an oral dose of peptide CMX-2 in saline at doses of 0, 0.03, 0.3, and 3.3 mg of peptide compound per kilogram (kg) of body weight. Control animals received saline only without peptide compound. Animals were sacrificed by decapitation after 30 days and dissected to isolate the brain, heart, and liver, which was frozen at −70° C. for subsequent analysis. […]
Telomerase activity was then measured in the cytoplasmic protein fraction of tissue homogenates.

telomerase [2] = assay: TRAP telomerase assay in mouse neuroblastoma cells (NB2a/DL); type: cell-based; details: CMX-1 100 μg/ml or CMX-3 70 μg/ml, 6 and 24 hours
Method: Telomerase activity was assayed in human cells and tumors by telomeric repeat amplification protocol (TRAP) (see, Piatsyzek, Methods in Cell Science, 17:1 (1995)). Whole cell lysates were prepared from approximately 10^6 Nb2a cells. Cells were washed once with PBS, repelleted, and 20 μl of lysate buffer (10 mM Tris-HCl pH 7.5, 1 mM MgCl2, 1 mM EGTA, 0.1 mM benzamidine, 5 mM β-mercaptoethanol, 0.5% CHAPS, 10% glycerol) was added directly to the washed pellets. The suspensions were incubated on ice for 30 minutes to allow cell swelling and lysis. Lysates were cleared by centrifugation at 12,000×g for 20 minutes at 4° C. Total protein concentration was determined for the cleared supernatant using a Coomassie Reagent protocol (Pierce). Supernatants were stored at −70° C.
Telomerase activity was measured in total cellular lysates using a telomeric repeat amplification protocol (TRAP). […]
Telomerase-induced hexamer extensions to the TS primer were performed in a 50 μl reaction volume containing 20 mM Tris-HCl (pH 8.3), 1.5 mM MgCl2, 63 mM KCl, 0.05% Tween-20, 1 mM EGTA, 50 μM dNTPs, 0.1 pmol ^32P-labeled TS primer, 1 pmol reverse primer RP (CTAACCCTAACCCTAACC) (SEQ ID NO:31), 1.0 μg cell lysate, and 2 U Taq polymerase (Ambion). […] Ladders were quantitated by excision from the gel, and counting in a Bench Count (Beckman). […]

telomerase [3] = assay: TRAP telomerase assay in primary cortical rat brain cell cultures; type: cell-based; details: for upregulation of expression of telomerase (TRAP): primary rat brain cortical cultures, 1-70 μg/ml
Method: as §1, §2
The ability of representative peptide compounds described herein to upregulate telomerase was also tested in primary cortical cultures of rat brain using the TRAP telomerase assay described above.
[…] […] Negative control cultures were not exposed to a peptide compound during the growth period.
In this case, the P^32-labeled DNA precursors were incorporated into the series of hexamer base pairs showing the upregulation of the telomerase. The total radioactivity corresponding to base pairs ladders from 50 to 80 bp was measured by counting the particular region of the gel. […] The highest concentrations of peptide compound tested produced increasingly less upregulation of the enzyme, as is typically observed at some point along most dose response curves.

[4] = test system: glutathione peroxidase (GPX); details: rat brain cells; same nanogram amounts (1 ng/ml, 24 h); data not shown
Method: (§3) Primary cortical rat brain cell cultures were prepared as described above in Example 4 except that cells were cultured following a 24-hour exposure to 0 or 1 nanograms (ng)/ml of CMX-4. […] Positive control (“Pos”) represents the analysis of 1 μg of protein from a total cell lysate of immortalized HeLa cells.
(§4) In addition, the levels of antioxidative enzymes superoxide dismutase (SOD), catalase (CAT), and glutathione peroxidase (GPX) were determined using a standard immunoblotting protocol (see, Adams et al., J. Cell. Biochem., 77: 221-233 (2000)).

[5] = test system: superoxide dismutase (SOD); details: rat brain cells; same nanogram amounts (1 ng/ml, 24 h); data not shown
Method: as §3, §4

catalase (CAT) = assay: Immunoblotting of catalase in primary cortical rat brain cell cultures; type: cell-based; details: same nanogram amounts (1 ng/ml, 24 h), data not shown

Q: Which results are given for “[Ac] Asp Gly Glu Ala (Ac-DGEA; listed as Homo sapiens) [CMX-2]”?
A: telomerase activity of brain tissue homogenates relative to untreated controls (telomerase [1]; 3.3 mg/kg body weight orally by gavage daily for 30 days, brain): 3.2 fold; upregulation of telomerase in brain tissue (telomerase [1]; oral daily for 30 days, brain): upregulated; upregulation of telomerase in heart tissue (telomerase [1]; oral daily for 30 days, heart): upregulated

Q: What does the source list for DGDGDFAIDAPE [CMX-1]?
A: upregulation of telomerase over control levels (TRAP) (telomerase [2]): upregulated; upregulation of expression of telomerase (TRAP) (telomerase [3]): upregulated; increase in the level of telomerase expression relative to control levels (telomerase [3]; primary rat cortical cultures, 10 μg/ml): greater than 4 fold; shape of dose-response curve of telomerase upregulation (telomerase [3]; primary rat cortical cultures, 1, 10, 70 μg/ml): inverted U-shape

Q: Which results are given for Asp Gly [CMX-3]?
A: upregulation of telomerase over control levels (TRAP) (telomerase [2]): upregulated; upregulation of expression of telomerase (TRAP) (telomerase [3]): upregulated; upregulation of telomerase over control at dose of maximum effect (telomerase [3]; primary rat cortical cultures, 1 μg/ml (maximum effect)): 2 fold

Q: With “R1 Asp Gly, wherein R1 is the iodine-substituted thyronine amino terminal capping group, 3,5,3′-triiodothyronine [CMX-4]” as the substance, how does the “upregulation of telomerase (TRAP)” value (telomerase [3]; primary cortical rat brain cells, 1 ng/ml, 24-hour exposure) read?
A: The value was “effective at upregulating telomerase”.

Q: And the “upregulation of glutathione peroxidase (GPX) compared to untreated control cells” value [4]?
A: Its value is “upregulated”.

Q: What about the “upregulation of superoxide dismutase (SOD) compared to untreated control cells” value [5] of the same substance?
A: The value was “upregulated”.

Q: And the “upregulation of catalase (CAT) compared to untreated control cells” value (catalase (CAT))?
A: The value was “upregulated”.
